{"source": "paper PMC10707737", "about": "“Indole Diterpene Derivatives from the Aspergillus flavus GZWMJZ-288, an Endophytic Fungus from Garcinia multiflora” (Molecules, 2023)", "target": "T1, NPC1L1 (Homo sapiens, UniProt Q9UHC9)", "T1 sequence (Q9UHC9 22-1359)": "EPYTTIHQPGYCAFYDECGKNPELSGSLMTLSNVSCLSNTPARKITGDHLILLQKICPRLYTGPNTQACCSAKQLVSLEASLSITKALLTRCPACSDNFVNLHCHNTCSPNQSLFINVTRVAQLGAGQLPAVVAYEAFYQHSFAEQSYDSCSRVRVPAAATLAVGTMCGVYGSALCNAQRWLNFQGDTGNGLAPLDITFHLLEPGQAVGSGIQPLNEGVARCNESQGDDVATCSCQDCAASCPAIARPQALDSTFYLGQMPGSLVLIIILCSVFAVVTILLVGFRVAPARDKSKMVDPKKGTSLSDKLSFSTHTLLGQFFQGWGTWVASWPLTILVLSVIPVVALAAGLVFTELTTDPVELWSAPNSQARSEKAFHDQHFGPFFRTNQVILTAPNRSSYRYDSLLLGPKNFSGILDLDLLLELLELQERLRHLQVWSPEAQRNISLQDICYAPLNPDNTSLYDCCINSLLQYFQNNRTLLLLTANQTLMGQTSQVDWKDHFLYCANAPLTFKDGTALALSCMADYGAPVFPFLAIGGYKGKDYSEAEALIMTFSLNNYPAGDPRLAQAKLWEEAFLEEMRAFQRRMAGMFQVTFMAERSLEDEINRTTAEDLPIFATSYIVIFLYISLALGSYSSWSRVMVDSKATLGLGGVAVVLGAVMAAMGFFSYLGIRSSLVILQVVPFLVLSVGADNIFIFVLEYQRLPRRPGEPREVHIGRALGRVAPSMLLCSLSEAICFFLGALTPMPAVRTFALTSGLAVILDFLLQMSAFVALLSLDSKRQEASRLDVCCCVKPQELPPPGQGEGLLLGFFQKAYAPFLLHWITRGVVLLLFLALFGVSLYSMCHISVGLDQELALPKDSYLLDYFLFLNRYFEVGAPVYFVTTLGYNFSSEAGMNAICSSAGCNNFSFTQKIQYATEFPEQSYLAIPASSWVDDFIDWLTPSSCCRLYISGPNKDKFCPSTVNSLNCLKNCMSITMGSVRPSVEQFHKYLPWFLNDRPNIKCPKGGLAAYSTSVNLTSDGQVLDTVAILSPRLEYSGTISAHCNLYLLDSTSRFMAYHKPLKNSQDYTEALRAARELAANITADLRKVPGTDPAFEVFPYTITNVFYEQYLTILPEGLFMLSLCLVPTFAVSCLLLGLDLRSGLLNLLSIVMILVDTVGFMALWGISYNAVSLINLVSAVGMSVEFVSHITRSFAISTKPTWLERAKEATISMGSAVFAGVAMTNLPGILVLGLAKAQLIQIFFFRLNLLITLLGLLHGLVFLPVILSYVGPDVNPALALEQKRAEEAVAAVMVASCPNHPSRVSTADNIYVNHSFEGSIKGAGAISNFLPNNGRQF", "assay": "Combining ability test with NPC1L1 (SPR, Biacore)", "type": "binding", "conditions": "fixed concentration 10 μM; ezetimibe positive control", "procedure": "NPC1L1 is currently considered to be the key protein for cholesterol absorption. It is impossible to evaluate the activity of targeting compounds on NPC1L1 through colorimetry assay due to NPC1L1′s lack of catalytic activity. The experiment was carried out under fixed concentration at 10 μM with ezetimibe as a positive control. Excess reactive esters on the sensor chip surface were blocked with 1 M ethanolamine (pH 8.5) for 7 min. The flow cell used for reference was activated and blocked as described above but remained uncoupled. Binding is typically reported in response units (RUs), which is defined as the response obtained from the flow cell containing the immobilized receptor minus the response obtained from the reference flow cell. CM5 series sensor chips and coupling reagents EDC and NHS were purchased from GE. The surface of the flow cell was activated for 7 min using a 1:1 mixture of 100 mM EDC and 100 mM NHS at a flow rate of 10 μL/mi. Subsequently, the corresponding proteins were injected over the surface for 7 min using the time and flow method (final immobilization level: 15,000 RU). Excess reactive esters on the sensor chip surface were blocked with 1 M ethanolamine (pH 8.5) for 7 min. The ability of compounds to combine with NPC1L1 protein was determined by the response value.", "note": "“Also recorded” adds a separate entry of the source.", "data": [{"smiles": "C=C(C)C1CCC23[C@H](C1c1c[nH]c4ccccc14)[C@H](C)C[C@@H](O)[C@@]2(C)[C@H](C)CC[C@@H]3O", "note": "(stereo partly drawn) [Compound 4, 14-eoi-14-hydroxy10,23-dihydro-24,25-dehydroaflavinine]", "values": [{"measurement": "binding ability with NPC1L1 (SPR response)", "result": "could bind well with NPC1L1; also recorded: comparable binding ability with NPC1L1"}]}, {"smiles": "CC(=O)OCC(C)C1=C(c2c[nH]c3ccccc23)C2C(C)CC(O)C3(C)C(C)CCC(O)C23CC1", "note": "(stereo not drawn) [Compound 1, 26-dihydroxyaflavininyl acetate]", "values": [{"measurement": "binding ability with NPC1L1 (SPR response)", "result": "could bind well with NPC1L1; also recorded: comparable binding ability with NPC1L1"}]}, {"smiles": "CC(C)C1=C(c2c[nH]c3ccccc23)[C@@H]2[C@H](C)CC[C@@]3(C)[C@H](C)CC[C@H](O)C23CC1", "note": "(stereo partly drawn) [Compound 6, aflavinine]", "values": [{"measurement": "binding ability with NPC1L1 (SPR response)", "result": "could bind well with NPC1L1; also recorded: stronger than that of ezetimibe; also recorded: stronger binding ability with NPC1L1 than ezetimibe"}]}]}
